Article PMC7954794, “Protein context shapes the specificity of SH3 domain-mediated interactions in vivo” (Nature Communications, 2021)

Tests used:
[1] = tested on: NCK2; assay: NCK2 phase separation with 1,6-hexanediol (Fig. S7C); assay type: biochemical, mouse; conditions: 0%, 5%, and 10% 1,6-hexanediol, 60 mM NaCl, n = 3
Method: (§1) Purified NCK2 proteins were diluted in GST buffer to identical concentrations. At 500 mM NaCl present in this buffer, all NCK2 constructs were completely soluble. Phase transition was initiated by dilution in imidazole buffer (10 mM imidazole (Bio Basic) pH 7.0, 1 mM DTT, 1 mM EGTA (Millipore Sigma), 1 mM MgCl2, 2.5% Glycerol (Bioshop Canada), 3% Dextran (Millipore Sigma)) containing various amount of NaCl so that the final concentration of NaCl would correspond to those in Supplementary Fig. 7B. For all the other experiments, the phase transition of NCK2 proteins was assessed at 60 mM NaCl. […] The pellets to supernatant fractions were used to quantify phase transition at 60 mM NaCl (7 replicates) via Coomassie protein quantification. The involvement of weak hydrophobic interactions in NCK2 driven phase transition was assessed using 1,6-Hexanediol (Millipore Sigma) at 60 mM NaCl. Imidazole buffer containing 0%, 1%, 5%, and 10% 1,6-Hexanediol was first prepared and phase transition was initiated and analyzed as described above. Finally, the competition of SH3-2 dependent homotypic NCK2 interaction with an SH3-2 binding peptide was assessed in the presence of 5, 15, 45, 90, 150, or 300 μM PAK1 peptide ([…]) in imidazole buffer with 60 mM NaCl. […]

[2] = tested on: NCK2; assay: NCK2 phase separation with PAK1 peptide competition (Fig. S7A); assay type: biochemical, mouse; conditions: 5, 15, 45, 90, 150, or 300 μM peptide, 60 mM NaCl; phase contrast microscopy
Method: as §1

| Compound | Effect on NCK2 phase separation [1] | Effect on NCK2 phase separation [2] |
| --- | --- | --- |
| OCCCCCCO [1,6-hexanediol] | disrupts all NCK2 SH3-shuffled proteins in a similar manner | – |
| DIQDKPPAPPMRNTST [PAK1 peptide] | – | Phase separation is inhibited |
